Test results as given in patent publication US20040127403A1, “Methods for treating and preventing Gram-positive bacteremias” (priority 2002, published 2004).
Values after ≈ are worked out from the molar mass of the structure shown. Where two headings read alike, the source gives them in different places.

Legend:
E. faecium A6349 Line-R = experiment: MIC, NCCLS broth microdilution; assay type: cell-based; conditions: Enterococcus faecium, A6349LINER
Procedure, shortened: (§1)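 To stop ramoplanin adsorbing to plastic, test media contained 0.02% BSA. MICs were then determined by NCCLS broth microdilution in two media, cation-adjusted Mueller-Hinton broth and trypticase soy broth.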

E. faecium A6343 Line-R = experiment: MIC, NCCLS broth microdilution; assay type: cell-based; conditions: Enterococcus faecium, A6343LINER
Procedure, shortened: as §1

E. faecium A2735 Syn-R = experiment: MIC, NCCLS broth microdilution; assay type: cell-based; conditions: Enterococcus faecium, A2735SYNR
Procedure, shortened: as §1

E. faecium A 6350 Line-R = experiment: MIC, NCCLS broth microdilution; assay type: cell-based
Procedure, shortened: as §1

S. epidermidis ATCC14990 = experiment: MIC, NCCLS broth microdilution; assay type: cell-based; conditions: Staphylococcus epidermidis, ATCC14990, S. epidermidis ATCC14990
Procedure, shortened: as §1

S. aureus ATCC27659 MSSA = experiment: MIC, NCCLS broth microdilution; assay type: cell-based; conditions: Staphylococcus aureus
Procedure, shortened: as §1

[1] = system: VanA strain of E. faecium (VRE); experiment: Suppression of VRE in a mouse colonization model; assay type: in vivo, Mice
Protocol: Mice were colonized with a clinical isolate VanA strain of E. faecium (VRE) isolated from a septicemic patient. A single inoculation of 5×10^8 cfu VRE by oral gavage (Day 0) was followed by treatment with vancomycin in the drinking water to maintain colonization. On day 22, each group received the same vancomycin-containing drinking water. One group also received ramoplanin (100 μg/mL) in its drinking water. The dose of ramoplanin per day was estimated to be 15 mg/kg, based on a standard water consumption of 150 mL/kg/day. Treatment with ramoplanin was discontinued on Day 29, and vancomycin treatment was discontinued on Day 36. The control group consisted of five mice, while the ramoplanin group consisted of four mice.

[2] = Day 22, prior to ramoplanin therapy, control group, 25 mg/kg/day vancomycin
[3] = Day 22, prior to ramoplanin therapy, ramoplanin group, on 25 mg/kg/day vancomycin
[4] = Day 29, control group, 25 mg/kg/day vancomycin
[5] = Day 36, 7 days after completion of ramoplanin therapy, former ramoplanin group, on 25 mg/kg/day vancomycin
[6] = Day 36, control group, 25 mg/kg/day vancomycin

Work on `CN[C@H](CC(C)C)C(=O)N[C@H]1C(=O)N[C@@H](CC(N)=O)C(=O)N[C@H]2C(=O)N[C@H]3C(=O)N[C@H](C(=O)N[C@H](C(=O)O)c4cc(O)cc(O)c4-c4cc3ccc4O)[C@H](O)c3ccc(c(Cl)c3)Oc3cc2cc(c3O[C@@H]2O[C@H](CO)[C@@H](O)[C@H](O)[C@H]2O[C@H]2C[C@](C)(N)[C@H](O)[C@H](C)O2)Oc2ccc(cc2Cl)[C@H]1O` [Vancomycin] yielded an MIC (E. faecium A6349 Line-R; Table 6, 1st) of over 16 µg/mL, an MIC (E. faecium A6349 Line-R; Table 6, 2nd) of over 64 µg/mL and an MIC (E. faecium A6343 Line-R; CAMHB) of 2 µg/mL (≈ 1.38 µM). It also gave an MIC (E. faecium A6343 Line-R; TSB) of 2 µg/mL (≈ 1.38 µM), an MIC (E. faecium A6343 Line-R; Table 6, 1st) of 1 µg/mL (≈ 0.69 µM) and an MIC (E. faecium A6343 Line-R; Table 6, 2nd) of 1 µg/mL (≈ 0.69 µM). For the same compound, the MIC (E. faecium A2735 Syn-R; CAMHB) was over 16 µg/mL, the MIC (E. faecium A2735 Syn-R; TSB) was over 16 µg/mL and the MIC (E. faecium A2735 Syn-R; Table 6, 1st) was over 16 µg/mL. The MIC (E. faecium A2735 Syn-R; Table 6, 2nd) was over 64 µg/mL, the MIC (E. faecium A 6350 Line-R; E. faecium A 6350 Line-R (Table 2), TSB) was >16, >16 μg/ml and the MIC (E. faecium A 6350 Line-R; Enterococcus faecium, A6350LINER) was over 16 µg/mL. It also gave an MIC (S. epidermidis ATCC14990; CAMHB) of 4 µg/mL (≈ 2.76 µM), an MIC (S. epidermidis ATCC14990; TSB) of 4 µg/mL (≈ 2.76 µM) and an MIC (S. epidermidis ATCC14990; Table 6, 1st) of 2 µg/mL (≈ 1.38 µM). It also gave an MIC (S. epidermidis ATCC14990; Table 6, 2nd) of 2 µg/mL (≈ 1.38 µM), an MIC (S. aureus ATCC27659 MSSA; CAMHB) of 1 µg/mL (≈ 0.69 µM) and an MIC (S. aureus ATCC27659 MSSA; TSB) of over 16 µg/mL. The MIC (S. aureus ATCC27659 MSSA; Table 6, 1st) was 1 µg/mL (≈ 0.69 µM), the MIC (S. aureus ATCC27659 MSSA; Table 6, 2nd) was 1 µg/mL (≈ 0.69 µM) and the “% Mice with VRE” value [1, 2] was 100%. The “Enterococci in faeces: Total Enterococci” value [1, 2] was 9.6 log 10 cfu/g faeces, the “Enterococci in faeces: VRE” value [1, 2] was 9.7 log 10 cfu/g faeces and the “% Mice with VRE” value [1, 3] was 100%. The “Enterococci in faeces: Total Enterococci” value [1, 3] was 9.8 log 10 cfu/g faeces, the “Enterococci in faeces: VRE” value [1, 3] was 9.7 log 10 cfu/g faeces and the “% Mice with VRE” value [1, 4] was 100%. The “Enterococci in faeces: Total Enterococci” value [1, 4] was 9.3 log 10 cfu/g faeces, the “Enterococci in faeces: VRE” value [1, 4] was 9.4 log 10 cfu/g faeces and the “% Mice with VRE” value [1, 5] was 100%. For the same compound, the “Enterococci in faeces: Total Enterococci” value [1, 5] was 8.6 log 10 cfu/g faeces, the “Enterococci in faeces: VRE” value [1, 5] was 8.7 log 10 cfu/g faeces and the “% Mice with VRE” value [1, 6] was 100%. For the same compound, the “Enterococci in faeces: Total Enterococci” value [1, 6] was 9.6 log 10 cfu/g faeces and the “Enterococci in faeces: VRE” value [1, 6] was 9.3 log 10 cfu/g faeces.

Work on `COc1cccc(OC)c1C(=O)N[C@@H]1C(=O)N2[C@@H]1SC(C)(C)[C@@H]2C(=O)O` [Meth., methicillin] yielded an MIC (E. faecium A6349 Line-R; Table 6, 1st, read-out: MIC) of over 16 µg/mL, an MIC (E. faecium A6349 Line-R; Table 6, 2nd, read-out: MIC) of over 64 µg/mL and an MIC (E. faecium A6343 Line-R; Table 6, 1st, read-out: MIC) of over 16 µg/mL. The MIC (E. faecium A6343 Line-R; Table 6, 2nd, read-out: MIC) was 64 µg/mL (≈ 168 µM), the MIC (E. faecium A2735 Syn-R; Table 6, 1st, read-out: MIC) was over 16 µg/mL and the MIC (E. faecium A2735 Syn-R; Table 6, 2nd, read-out: MIC) was over 64 µg/mL. The MIC (S. epidermidis ATCC14990; Table 6, 1st, read-out: MIC) was 1 µg/mL (≈ 2.63 µM), the MIC (S. epidermidis ATCC14990; Table 6, 2nd, read-out: MIC) was 1 µg/mL (≈ 2.63 µM) and the MIC (S. aureus ATCC27659 MSSA; Table 6, 1st, read-out: MIC) was 2 µg/mL (≈ 5.26 µM). It also gave an MIC (S. aureus ATCC27659 MSSA; Table 6, 2nd, read-out: MIC) of 2 µg/mL (≈ 5.26 µM).

In the case of `CC(=O)NC[C@H]1CN(c2ccc(N3CCOCC3)c(F)c2)C(=O)O1` [Linezolid], the MIC (E. faecium A6349 Line-R; Table 6, 1st, read-out: MIC) is reported as 16 µg/mL (≈ 47.4 µM), the MIC (E. faecium A6349 Line-R; Table 6, 2nd, read-out: MIC) is reported as 16 µg/mL (≈ 47.4 µM) and the MIC (E. faecium A6343 Line-R; Table 6, 1st, read-out: MIC) is reported as 8 µg/mL (≈ 23.7 µM). The MIC (E. faecium A6343 Line-R; Table 6, 2nd, read-out: MIC) was 8 µg/mL (≈ 23.7 µM), the MIC (E. faecium A2735 Syn-R; Table 6, 1st, read-out: MIC) was 4 µg/mL (≈ 11.9 µM) and the MIC (E. faecium A2735 Syn-R; Table 6, 2nd, read-out: MIC) was 2 µg/mL (≈ 5.93 µM). The MIC (S. epidermidis ATCC14990; Table 6, 1st, read-out: MIC) was 4 µg/mL (≈ 11.9 µM), the MIC (S. epidermidis ATCC14990; Table 6, 2nd, read-out: MIC) was 2 µg/mL (≈ 5.93 µM) and the MIC (S. aureus ATCC27659 MSSA; Table 6, 1st, read-out: MIC) was 4 µg/mL (≈ 11.9 µM). It also gave an MIC (S. aureus ATCC27659 MSSA; Table 6, 2nd, read-out: MIC) of 2 µg/mL (≈ 5.93 µM).
